From US20080108706A1, “Chemical resection of pancreas” (priority 1999, published 2008) come the findings set out here.

For data set [1], the system named is human pancreatic cell carcinoma line PANC-1. The data set is described as follows: IC50 assays in PANC-1 cells. In kind it is cell-based. As for the experimental part: (OH)2DEHSPM was tested in a series of IC50 assays in the human pancreatic cell carcinoma line PANC-1 (doubling time 36 hr.).
The test system of data set [2] is pancreatic native polyamine pools. The data set is described as follows: Tissue drug and native polyamine levels (pancreas, liver) in treated dogs. In kind it is in vivo, beagles. From the text: The two dogs (#490 and 494) were fed a prescription canned and dry dog food and were supplemented with Viokase, a pancreatic enzyme preparation, by mixing three tablets with food or by oral administration immediately before each feeding. The dogs were maintained on this regimen for approximately three weeks. During this time, their weight and blood chemistries were closely monitored. The Viokase supplementation was then stopped and the same parameters were again evaluated. One week after the Viokase administration had ceased, the animals were euthanized and tissues were taken for histology and for the determination of tissue polyamine levels.
As the pancreatic insufficiency side-effect that was observed after the administration of the (R,R)—(HO)2DEHSPM to the beagles may have been related to the (R,R)-chirality of the molecule, the (S,S)-enantiomer was synthesized and was compared in a head-to-head fashion with the (R,R)-enantiomer. To perform this experiment, five male beagles approximately 6-8 months of age were obtained from Harlan Sprague Dawley. There were provided with food and water ad libitum and were allowed to acclimate to their new surroundings for two weeks. The animals were weighed prior to starting drug administration and were weighed once per week during the drug dosing period. A CBC and chemistry panel and a Holter monitor were performed once per week. In addition to the usual tests, additional pancreatic function-specific tests were also performed. These additional evaluations included a fecal trypsin test, examination of the feces for fecal fat and serum trypsin-like immunoreactivity determinations. It was hoped that these signs of pancreatic insufficiency would only appear in the animals given the (R,R)-enantiomer and would not be observed in the dogs that were given the (S,S)-molecule. The pancreatic insufficiency may not become evident until approximately 7-8 weeks post-drug. At the conclusion of the experiment, all of the animals were sacrificed and the histology and tissue polyamine levels were determined.
• 1. Dogs #468 and 500 were given (R,R)—(HO)2DEHSPM subcutaneously twice daily for 13 days. • 2. They were fed Purina Dog Chow ad libitum and given free access to water. • 3. Polyamine levels in the pancreas were also analyzed at several time points post-drug. • 4. At the start of the experiment, dog #468 weighed 14.4 kg and dog #500 weighed 12.8 kg. The latter animal's weight never exceeded 13.2 kg. At the end of the drug dosing period, dog #468 weighed 13.0 kg, a loss of 1.4 kg; dog #500 weighed 13.2 kg, a gain of 0.4 kg. • 5. […] The pancreatic native polyamine pools (most especially SPD) were markedly diminished compared to untreated control tissue: [SPM]control=3,985 μm v. [SPM10-days post-treatment=2,548 μm (64% of control) [SPD]control=2,820 μm v [SPD]10-days post-treatment=721 μm (25.6% of control) • 6. Dog #468 was bright, alert and responsive until day thirteen of drug administration. […] The dog was fed boiled chicken and rice, as well as Nutrical (a caloric supplement) and cat food and was slowly weaned back to regular dog food. Frank and/or occult blood was found in the dog's stool until about 17-days post-drug. • 7. Dog #500 was bright, alert and responsive throughout the experiment. […] However, stool consistency had normalized by one week post-drug. • 8. […] The inability to digest fats was confirmed when this test was repeated and the fatty meal was supplemented with Viokase (a pancreatic enzyme supplement). […] (2.15 mg/kg every 12 hours) for 13 days • Route: subcutaneously • 1. Dogs #440 and 476 were given (S,S)— (HO)2DEHSPM subcutaneously twice daily for 13 days. • […]. They were fed Purina Dog Chow ad libitum and given free access to water. • 3. At the start of the experiment, dog #440 weighed 11.8 kg.
Two animals were also treated with DEHSPM at a dose equimolar to the (HO)2DEHSPM dosage and sacrificed at 1- and 75-days after the final treatment. […]

The subject of data set [3] is acinar-derived cell line AR42J. Briefly: Growth of AR42J cells, IC50 assays. In kind it is cell-based. As for the experimental part:
(OH)2 DEHSPM was also tested in the acinar-derived cell line AR42J.

One may read the IC50 as the concentration that gives 50% inhibition. A high value points to weaker potency in that assay.

On to `CCNCC[C@@H](O)CNCCCCNC[C@H](O)CCNCC.Cl.Cl.Cl.Cl` [(R,R)-(HO)2DEHSPM, N^1,N^14-Diethyl-3(R) 12(R)-dihydroxyhomospermine tetrahydrochloride], for which the concentration for half-maximal inhibition (IC50) is more than 100000 nM in data set [1] (time point 96 hr.); 500 nM in data set [1] (time point 144 hr.); 120 nM in data set [1] (time point 240 hr.); 90000 nM in data set [3] (treatment period 4 days (= 1.33 doublings)); 1200 nM in data set [3] (treatment period 6 days (= 2 doublings)); 90 nM in data set [3] (treatment period 12 days (= 4 doublings)). Also, in data set [2] (10-days post-drug), the “liver concentration of drug (parent+metabolite)” value was 500 μm. In addition, in data set [2] (10-days post-drug), the “pancreatic concentration of drug (parent+metabolite)” value was “exceeded 1,000 μm”. Further, the figures for the “[SPD] in pancreas” value in data set [2] (10-days post-treatment) and in data set [2] (52-days post-treatment) were 721 μm and 156 μm, respectively. The figures for the “[SPD] in pancreas, % of control” value in data set [2] (10-days post-treatment) and in data set [2] (52-days post-treatment) were 25.6 % of control and 5.5 % of control, respectively. Also, the “[SPM] in pancreas” value is listed as 2,548 μm in data set [2] (10-days post-treatment) and 860 μm in data set [2] (52-days post-treatment). In addition, the “[SPM] in pancreas, % of control” value is listed as 64 % of control in data set [2] (10-days post-treatment) and 21.6 % of control in data set [2] (52-days post-treatment). In data set [2] (75-, 78-, 88- and 92-days post-treatment), the “native polyamine levels in pancreas” value is on record as “stabilized, but at a much lower level than the control pancreas”. Moreover, the “drug remaining in pancreas” value in data set [2] (75-, 88- and 92-day post-treatment samples) was “almost completely washed out”. Further, the “total drug concentration (parent+metabolite) in pancreas” value in data set [2] (at necropsy (52-days post-treatment) vs 10-days post-treatment) was “remained virtually unchanged”.
